In a melting point compilation (Tetko et al.; mined from patent text by program, amines drawn as free bases though some values may be those of a salt) one finds melting point data, which are given here for 91 compounds.

A word on the melting point: it is the temperature of the solid-liquid transition.

The structures appear in SMILES notation.

Regarding `Nc1cc(-n2cc(C(=O)O)c(=O)c3ccc(Cl)nc32)c(F)cc1F`, the melting point is more than 270 °C. In the case of `O=C(NCc1ccc(F)c(F)c1)c1ccnc(N2CCN(CC3CC3)C2=O)c1`, the melting point was 134 to 136 °C. In the case of `CC(C(=O)O)c1ccc(C(=O)c2ccco2)cc1` (stereo unspecified), the melting point was in the range of 86 to 88 °C. The result for `Nc1cc(C(=O)O)cc(N)c1O` reads 205 °C; that for `O=C(Nc1cc(S(=O)(=O)NC(CO)CO)sc1Cl)c1cnn2c(C(F)F)cc(-c3ccc(C(F)(F)F)cc3)nc12`, 241 °C; that for `Clc1ccc2nc(-c3ccsc3)cn2n1`, 203 to 205 °C. The result for `O=C(Oc1ccc(F)cc1)c1cc(C(F)(F)F)cc(C(F)(F)F)c1` reads 60 to 61 °C. `CC1(c2ccccc2)Cc2cc(OCCO)c(Cl)c(Cl)c2C1=O` (stereo unspecified) returned a melting point of 188 to 190 °C. The result for `CC(C)(C)OC(=O)NCc1cc(N=C(N)c2cccs2)ccc1N1CCN(C(=O)CCCCC2CCSS2)CC1` (stereo unspecified) reads 162 to 164 °C; that for `CCOc1ccc(C(C)=O)cc1C(=O)Nc1c(C)cccc1C(N)=O`, 214 to 216 °C. The result for `CCOC1(OCCc2nc(C(C)C)c(Sc3cc(Cl)cc(Cl)c3)n2C)CCCCCC1` reads 53 to 54 °C.

`CCCCCC(=O)Nc1ccnc(-c2ccncc2)n1` came in with a melting point of 119 to 120 °C. `CC(C)[C@@H]1CC[C@@H](C)C[C@H]1C(=O)Nc1ccc(CC#N)cc1` returned a melting point of 146 to 150 °C. In turn, `CCOC(=O)c1cn2c(cc(OC)c3cc(OC)c(OC)cc32)n1` yielded a melting point of 195 to 197 °C. The result for `CNC(=S)N1CCc2nc(N)sc2C1` reads 188 to 190 °C; that for `CC=Cc1cnn(C)c1S(=O)(=O)NC(=O)Nc1nc(OC)cc(OC)n1`, 154 to 156 °C. As for `CON(C)C(=O)CN1CCC(CCN2CCN(c3cccc(C)c3C)CC2)CC1`, the melting point came to 66 °C. The result for `C#CCOc1cccc(OC)c1-c1nc2cnncc2[nH]1` reads 259 °C; that for `CC1(C)OC(c2ccc(S(C)(=O)=O)cc2)=C(c2cccc(F)c2)C1=O`, 178 to 179 °C; that for `O=C1CCC(c2ccccc2Cl)=NN1`, 114 to 116 °C. Compound `C#CCOc1cnc(C2=NC(C)(C(C)C)C(=O)N2)c(C(=O)OC)c1` (stereo unspecified) came in with a melting point of 83 to 84 °C. Compound `Cn1nc(O)c(Cl)c1C(F)(F)F` had a melting point of 136 to 140 °C. `Cc1c(Cl)c(=O)[nH][nH]c1=O` showed a melting point of 305 to 310 °C. For `O=C(Nc1c(C(=O)c2ccccc2)[nH]c2cc(Cl)ccc12)c1ccccc1Cl`, the melting point was in the range of 229 to 234 °C. The result for `CCOC(=O)c1ccc(-n2cnnc2S)cc1` reads 194 to 196 °C; that for `CCOC(=O)C1=C(C)NC(N)=C(C(=O)OCC)C1c1ccccc1C(F)(F)F` (stereo unspecified), 156 °C; that for `O=C(c1ccccc1)C(O)C1OC(n2cnc3c(NC4CCCc5ccccc54)ncnc32)C(O)C1O` (stereo unspecified), 107 to 112 °C. For `NC(=S)N1CCN(c2ccccc2)CC1`, the melting point lay within 178 to 179 °C.

`O=C(O)CCCCNc1ccccc1-c1ccccc1`: the melting point lay within 73 to 75 °C.

In the case of `CCCN1CCC(c2ccc(C(=O)NC3(C(=O)NCC#N)CCCCC3)cc2)CC1`, the melting point fell in the range of 198 to 200 °C. As to `CC(C)[C@@H]1C[C@H](O)[C@H](CC2CCCCC2)NC1=O`, the melting point lay within 97 to 99 °C.

As to `COOC(=O)c1cc2c(Cl)cn(C)c2nc1C(=O)OOC`, the melting point is 129 to 137 °C. The result for `CCOC(=O)c1cn(Cc2ccc(OCc3nc(-c4ccccc4)oc3C)cc2)nc1O` reads 152 to 153 °C; that for `COc1cc(CC(=O)Nc2nn(-c3ccccc3)cc2C=O)ccc1OCc1nc(-c2ccco2)oc1C`, 190 to 191 °C. The result for `Nc1cncc(O)c1CCCOc1cccnc1Oc1cccc(Cl)c1` reads 75 to 90 °C. The compound `O=Cc1ccc(/C=C/c2ccncc2)cc1` showed a melting point of 116 to 117 °C. The result for `C#CCOCC(=O)Nc1ccccc1` reads 142 to 145 °C; that for `Cc1ccc(CN2CCN([C@@H](CNS(=O)(=O)c3ccc(OCc4cc(C)nc5ccccc45)cc3)C(=O)NO)CC2)cc1`, 170 °C; that for `CCOC(=O)c1cnc2scc(C)c2c1O`, 189 to 192 °C. The result for `C=CCNC(=O)c1ccc(-n2c(C)ccc2C)cc1Br` reads 136 to 138 °C; that for `CS(=O)(=O)Oc1ccc2c(c1)[nH]c(=O)c1c3ccc(OS(C)(=O)=O)cc3oc21`, more than 300 °C; that for `O=C(O)C(CC1CCCCC1)NS(=O)(=O)c1ccc(Cl)cc1` (racemic), 127 to 129 °C.

`N#CC(c1ccc(C(O)C(Cc2cccc(OC(F)(F)C(F)F)c2)NC(=O)c2cccc3c2C=CCCC3)cc1)N1CCCCC1` (racemic): the melting point lay in the range of 152 to 154 °C.

`CCNC(=O)/C=C/c1cccc(Cl)c1` yielded a melting point of 87 to 88 °C.

On to `CCOC(=O)C1=C(COCC2CO2)NC(C)=C(C(=O)OC)C1c1cccc(Cl)c1Cl` (stereo unspecified), for which the melting point lay in the range of 103 to 104 °C. The result for `CCCCCN1C(=O)C2(COc3cc4c(cc32)OCCO4)c2ccccc21` (stereo unspecified) reads 111 to 113 °C; that for `O=C(O)c1cccc(-c2cccc3cc(Cc4cccc(F)c4)oc23)c1`, 135 to 136 °C.

As for `O=c1nc(-c2ccnc(-c3ccccc3)c2)sc2ccccc12`, the melting point is 163 °C. For the compound `Cn1c(C(F)(F)F)cc(=O)n(-c2nc(Cl)c(Cl)cc2F)c1=O`, the melting point lay in the range of 113 to 115 °C. The result for `COc1ccc2cc3c(c(-c4ccc(C(F)(F)F)cc4)c2c1)CNC3=O` reads 219 to 221 °C. The result for `CCn1ccc(C(=O)c2sc(NC(=O)c3ccncc3)nc2-c2ccco2)cc1=O` reads 277 to 281 °C. Regarding `O=C(N[C@@H](Cc1ccccc1)[C@@H](O)[C@H](O)[C@H](Cc1ccccc1)NC(=O)OCc1ccccc1)OCc1ccccc1`, the melting point lay within 215 to 216 °C.

`CSc1cc2c(cc1C(F)(F)F)N(C(=O)Nc1cccc(C(=O)Nc3ccncc3)c1)CC2` displayed a melting point of more than 200 °C.

For `CCCc1c(OCCCCCBr)ccc2c1OCCC2=O`, the melting point was in the range of 47 to 48 °C. The result for `O=C(Nc1cccc(C(F)(F)F)c1)c1cccnc1Cl` reads 117 to 118 °C. `COC(=O)C(Sc1ccc(Cl)cc1)c1ccc(I)cc1` (stereo unspecified): the melting point is 44 to 46 °C. The result for `COc1ccc2cccc(C(=O)CNC(C)=O)c2c1` reads 122 to 124 °C.

The compound `S=C=Nc1ccc(-c2nc(-c3ccccn3)no2)cc1` yielded a melting point of 145 to 146 °C. For the compound `N#Cc1cccnc1CC1COc2cc3c(cc2O1)OCC31C(=O)Cc2ccccc21` (stereo unspecified), the melting point lay in the range of 230 to 233 °C. Compound `O=C(O)CN1C(=O)C(=CCCCCl)SC1=S` displayed a melting point of 155 to 157 °C. As for `COc1ccc(C(=O)Nc2ccc3ccc(OC)nc3n2)cc1`, the melting point came to 115 °C. The result for `O=C(O)c1cccc(CC2COc3cc(O)ccc3C2=O)c1` (stereo unspecified) reads 234 to 236 °C; that for `COc1ccc(C(=O)C=Cc2ccccc2)cc1C=CC(=O)O`, 204 °C; that for `Cc1cccn2cc(CCl)nc12`, 115 to 117 °C. The result for `CC(C)(C)OC(=O)C(CSCc1ccc(-c2ccc(-c3cccc4c3oc3ccccc34)cc2)cc1)C(=O)O` (stereo unspecified) reads 205 to 206 °C; that for `O=C(O)c1ccn(-c2ccc(Cl)cc2)c1`, 222 to 224 °C. Compound `COc1ccc(CCc2oc3cccc(O)c3c2C)cc1` gave a melting point of 72 to 75 °C. The result for `O=C(O)COc1cc(Cl)ccc1C(=O)NCc1ccc(Br)cc1` reads 172 to 173 °C; that for `NC(=O)CNC(=O)c1ccccc1I`, 183 to 185 °C; that for `Fc1ccc2c(c1)CCc1cccnc1C2=C1CCNCC1`, 134 °C. The result for `Cn1nnnc1-c1ccc2[nH]ccc2c1` reads 149 to 150 °C; that for `N#CC=Cc1ccc(CBr)cc1`, 105 to 107 °C; that for `CCC1(CC)C(=O)N(c2ccccc2)CC(C)(C)N1OC(C)c1ccccc1` (stereo unspecified), 78 to 81 °C. In turn, `CC(=O)N1CCN(c2ccc(NS(C)(=O)=O)c(C)c2)CC1` came in with a melting point of 153 to 154 °C. The result for `O=C(O)c1cc(NCCCc2ccc([N+](=O)[O-])cc2)ccc1O` reads 229 to 231 °C; that for `COc1cc2c(cc1Nc1ncc(Cl)c(Nc3ccccc3S(=O)(=O)C(C)C)n1)CCN(CC(=O)N(C)C)CC2`, 83 to 94 °C; that for `Cc1ccn2c(CN(C)C)c(-c3ccc4sc(=O)n(C)c4c3)nc2c1`, 167 to 168 °C. The result for `Cc1cc(C)cc(/C=C/c2ccc(O)cc2)c1` reads 142 °C. The result for `N#CN=C(Oc1ccccc1)N1CCCCC1` reads 85.7 °C. With `CC(C)(C)c1noc(-c2cccc(S(C)(=O)=O)n2)n1`, the melting point lay in the range of 165 to 167 °C.

For `Nc1nc(N)c2c(ccc3[nH]c4c(c32)CCCC4)n1`, the melting point lay within 300 to 303 °C. `Cc1ccc(C2=Nc3ccccc3N=C(N3CCN(C)CC3)C2)cc1` showed a melting point of 169 to 170 °C. The result for `COc1cc(Cl)nc(NC(=O)NS(=O)(=O)C(C)S(=O)(=O)N2CCCC2)n1` (stereo unspecified) reads 158 to 160 °C; that for `CCC(NS(=O)(=O)c1ccc(Cl)c(Cl)c1)c1cnc(Oc2ccc(F)cc2)n1CC` (stereo unspecified), 138 °C. In turn, `COc1cccc2c(CCOCc3ccc(-c4ccccc4)cc3)coc12` gave a melting point of 77 to 78 °C. The result for `Cc1ccc2c3c(ccc2n1)OC[C@H](CN1CCN(c2cccc(Cl)c2)CC1)O3` reads 110 to 112 °C; that for `CCCCc1nc(S(C)=O)c(C(=O)OCC)n1CC1Oc2ccc(Cl)cc2O1` (stereo unspecified), 103 °C; that for `O=C(N[C@H](Cc1ccc(C(F)(F)F)cc1)[C@@H](O)c1cccc2ccccc12)c1ccc(F)cc1` (racemic), 194 to 195 °C. For `CC(C)n1nc(-c2c(-c3ccccc3)nn3ccc(N4CCN(C(=O)CN(C)C)CC4)cc23)ccc1=O`, the melting point was in the range of 129 to 130 °C. For the compound `Cc1noc(-c2ccc(Cl)cc2)c1-c1ccc(S(N)(=O)=O)cc1`, the melting point is 194 to 197 °C. Consider `O=C(Cl)c1cccc(N2CCOCC2)c1`, for which the melting point lay in the range of 219 to 220 °C.
